From publication PMC13065040 (PLOS One, 2026)
“Also recorded” adds a separate entry of the source.

Legend:
MMP-2 [1] = conditions: cited from earlier work
Text: Ctx (Fig 2) is a 36-residue polypeptide from the scorpion Leiurus quinquestriatus. Ctx contains 8 cysteinyl residues, forming 4 disulfide bridges which help to stabilize its three-dimensional structure. […] However, conflicting data on the effects of Ctx on the glioma-specific chloride channel makes it difficu ... || Given the absence of change in melting temperature, the present result cannot confirm the notion that Ctx binds to the three fibronectin regions in the collagen binding domain [33].

MMP-2 [2] = target: T1, MMP-2 (Homo sapiens, UniProt P08253); assay: MMP-2 inhibition assay (Enzo kit, OmniMMP RED fluorogenic substrate); type: biochemical
T1 construct: purchased Enzo Life Sciences (MMP-2 drug discovery kit)
Method: The MMP-2 inhibition assay was performed using the Enzo Life Sciences MMP-2 drug discovery kit. and the quenched fluorogenic substrate OmniMMP RED. Reference substrate was diluted to a final concentration of 5 μM, while the MMP-2 enzyme was diluted to 58 mU/µL, and the N-Isobutyl-N-(4-methoxyphenylsulfonyl)glycyl hydroxamic acid (NNGH) inhibitor was diluted to a concentration of 1/200 in assay buffer. […] The assay was performed using a black 96-well microplate. Fluorescence was measured at excitation/emission wavelengths of 545/576 nm, with a cutoff at 570 nm using Gen5 microplate reader (BioTeK, Shoreline, WA). Baseline fluorescence was recorded before adding NNGH inhibitor which was used as a positive control for MMP-2 inhibition. Reaction mixtures in the plate were incubated at 37 °C for 10 min, and fluorescence was measured at 10 min intervals for the first 30 min, then at 30 min intervals until 2 h had elapsed. […] Statistical analysis was performed using ANOVA with GraphPad Prism software, version 10.0.3.

MMP-2 [3] = target: T2, MMP-2 (Homo sapiens, UniProt P08253); assay: Differential scanning fluorimetry (DSF); type: binding; set-up: Dtm (ΔTm): unit not given here; conditions: for Dtm (ΔTm), average / Tm of MMP-2 with peptide, average: average of replicates; for Dtm (ΔTm) / Tm of MMP-2 with peptide: CTX experiment
T2 construct: ProSpec Bio; Antibodies-Online; Elabscience; Abcam ENZ-769; ABIN7400042; PKSH033450
T2 sequence (P08253 110-660): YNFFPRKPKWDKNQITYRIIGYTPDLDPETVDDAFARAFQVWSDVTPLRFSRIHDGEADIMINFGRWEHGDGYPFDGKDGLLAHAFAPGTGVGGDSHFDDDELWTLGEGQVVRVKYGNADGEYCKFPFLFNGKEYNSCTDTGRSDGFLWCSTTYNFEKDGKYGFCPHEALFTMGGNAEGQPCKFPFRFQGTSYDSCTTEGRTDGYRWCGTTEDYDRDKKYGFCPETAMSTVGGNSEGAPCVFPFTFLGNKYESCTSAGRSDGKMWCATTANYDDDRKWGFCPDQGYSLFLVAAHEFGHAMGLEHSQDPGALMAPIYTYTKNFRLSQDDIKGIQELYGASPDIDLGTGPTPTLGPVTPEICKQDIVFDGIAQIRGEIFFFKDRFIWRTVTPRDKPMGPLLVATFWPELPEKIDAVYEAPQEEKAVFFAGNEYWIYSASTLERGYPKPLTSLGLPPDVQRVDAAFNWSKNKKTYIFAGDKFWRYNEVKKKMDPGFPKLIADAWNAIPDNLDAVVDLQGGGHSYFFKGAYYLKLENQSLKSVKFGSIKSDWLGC
Method: The melting temperatures (Tm) of recombinant MMP-2 and its complexes with peptides were ascertained using BioRad CFX384 Touch real-time PCR (Hercules, CA, USA). The experiments were performed as previously described. The unfolding of the protein was detected using the fluorescent SYPRO-orange dye (Invitrogen, Carlsbad, CA, USA). MMP-2 and prospective ligand peptides were dissolved in 7.1 pH phosphate buffered saline (154 mM NaCl, 5.6 mM Na2PO4, 1.1 mM KH2PO4), and the reaction mixture was made to a final concentration of 1 µM of protein, either 30 µM ([…]) of peptide, and 1000x dilution of the SYPRO-Orange dye stock from the manufacturer. Excitation and emission filters of the dye were set at 450 − 490 nm and 560 − 580 nm, respectively. The temperature for the reaction was held at 25 °C for 5 min, and then a gradient of 25 °C to 95 °C was applied at a rate of 0.3 °C/min, and the fluorescence was recorded. To determine Tm of the protein, the first derivatives of melting curves were plotted using GraphPad Prism software, version 10.0.3.

For Chlorotoxin [Ctx], the “effect on the enzymatic activity of MMP-2” value (MMP-2 [1]) is given as “no statistically significant effect”, the “inhibition of MMP-2 enzymatic activity” value (MMP-2 [1]) is given as “inhibits MMP-2 enzymatic activity” and the “MMP-2 enzymatic activity, percent of control” value (MMP-2 [2]; Ctx 1 µM, replicate 1) is given as 118.933. The “MMP-2 enzymatic activity, percent of control” value (MMP-2 [2]; Ctx 1 µM, replicate 2) was 112.076, the “MMP-2 enzymatic activity, percent of control” value (MMP-2 [2]; Ctx 1 µM, replicate 3) was 102.494 and the “MMP-2 enzymatic activity, percent of control” value (MMP-2 [2]; Ctx 1 µM, replicate 4) was 91.6233. The “MMP-2 enzymatic activity, percent of control” value (MMP-2 [2]; Ctx 1 µM, replicate 5) was 88.1016, the “MMP-2 enzymatic activity, percent of control” value (MMP-2 [2]; Ctx 1 µM, replicate 6) was 107.77 and the “MMP-2 enzymatic activity, percent of control” value (MMP-2 [2]; Ctx 1 µM, replicate 7) was 112.009. For the same substance, the “MMP-2 enzymatic activity, percent of control” value (MMP-2 [2]; Ctx 1 µM, replicate 8) was 115.93, the “MMP-2 enzymatic activity, percent of control” value (MMP-2 [2]; Ctx 5 µM, replicate 1) was 109.471 and the “MMP-2 enzymatic activity, percent of control” value (MMP-2 [2]; Ctx 5 µM, replicate 2) was 117.657. The “MMP-2 enzymatic activity, percent of control” value (MMP-2 [2]; Ctx 5 µM, replicate 3) was 107.159, the “MMP-2 enzymatic activity, percent of control” value (MMP-2 [2]; Ctx 5 µM, replicate 4) was 113.75 and the “MMP-2 enzymatic activity, percent of control” value (MMP-2 [2]; Ctx 5 µM, replicate 5) was 100.089. For the same substance, the “MMP-2 enzymatic activity, percent of control” value (MMP-2 [2]; Ctx 5 µM, replicate 6) was 108.86, the “MMP-2 enzymatic activity, percent of control” value (MMP-2 [2]; Ctx 5 µM, replicate 7) was 121.511 and the “MMP-2 enzymatic activity, percent of control” value (MMP-2 [2]; Ctx 5 µM, replicate 8) was 108.966. For the same substance, the “MMP-2 enzymatic activity, percent of control” value (MMP-2 [2]; Ctx 10 µM, replicate 1) was 86.2677, the “MMP-2 enzymatic activity, percent of control” value (MMP-2 [2]; Ctx 10 µM, replicate 2) was 99.1052 and the “MMP-2 enzymatic activity, percent of control” value (MMP-2 [2]; Ctx 10 µM, replicate 3) was 97.4706. For the same substance, the “MMP-2 enzymatic activity, percent of control” value (MMP-2 [2]; Ctx 10 µM, replicate 4) was 94.5071, the “MMP-2 enzymatic activity, percent of control” value (MMP-2 [2]; Ctx 10 µM, replicate 5) was 60.0877 and the “MMP-2 enzymatic activity, percent of control” value (MMP-2 [2]; Ctx 10 µM, replicate 6) was 92.3409. The “MMP-2 enzymatic activity, percent of control” value (MMP-2 [2]; Ctx 10 µM, replicate 7) was 113.684, the “MMP-2 enzymatic activity, percent of control” value (MMP-2 [2]; Ctx 10 µM, replicate 8) was 106.8 and the “MMP-2 enzymatic activity, percent of control” value (MMP-2 [2]; Ctx 15 µM, replicate 1) was 86.879. The “MMP-2 enzymatic activity, percent of control” value (MMP-2 [2]; Ctx 15 µM, replicate 2) was 110.627, the “MMP-2 enzymatic activity, percent of control” value (MMP-2 [2]; Ctx 15 µM, replicate 3) was 103.344 and the “MMP-2 enzymatic activity, percent of control” value (MMP-2 [2]; Ctx 15 µM, replicate 4) was 104.062. For the same substance, the “MMP-2 enzymatic activity, percent of control” value (MMP-2 [2]; Ctx 15 µM, replicate 5) was 43.5824, the “MMP-2 enzymatic activity, percent of control” value (MMP-2 [2]; Ctx 15 µM, replicate 6) was 117.856 and the “MMP-2 enzymatic activity, percent of control” value (MMP-2 [2]; Ctx 15 µM, replicate 7) was 126.92. The “MMP-2 enzymatic activity, percent of control” value (MMP-2 [2]; Ctx 15 µM, replicate 8) was 120.528, the “MMP-2 enzymatic activity, percent of control” value (MMP-2 [2]; Ctx 20 µM, replicate 1) was 134.561 and the “MMP-2 enzymatic activity, percent of control” value (MMP-2 [2]; Ctx 20 µM, replicate 2) was 108.926. The “MMP-2 enzymatic activity, percent of control” value (MMP-2 [2]; Ctx 20 µM, replicate 3) was 139.252, the “MMP-2 enzymatic activity, percent of control” value (MMP-2 [2]; Ctx 20 µM, replicate 4) was 98.6135 and the “MMP-2 enzymatic activity, percent of control” value (MMP-2 [2]; Ctx 20 µM, replicate 5) was 53.8949. For the same substance, the “MMP-2 enzymatic activity, percent of control” value (MMP-2 [2]; Ctx 20 µM, replicate 6) was 135.226, the “MMP-2 enzymatic activity, percent of control” value (MMP-2 [2]; Ctx 20 µM, replicate 7) was 133.352 and the “MMP-2 enzymatic activity, percent of control” value (MMP-2 [2]; Ctx 20 µM, replicate 8) was 121.591. For the same substance, the “inhibition of MMP-2 enzymatic activity (Fig 10A)” value (MMP-2 [2]; Ctx at 1, 5, 10, 15 and 20 µM, compared to control inhibitor) was “did not inhibit; also recorded: not statistically significant”, the “inhibition of MMP-2 enzymatic activity (Fig 10B)” value (MMP-2 [2]; peptides at 1 µM, 50 µM and 100 µM, one-way ANOVA vs control) was “not statistically significant” and the “Dtm (ΔTm), average” value (MMP-2 [3]; peptide 30 (µM per method)) was 2.368e-15. For the same substance, the “Tm of MMP-2 with peptide, average” value (MMP-2 [3]; peptide 30 (µM per method)) was 47.7, the “Dtm (ΔTm)” value (MMP-2 [3]; peptide 30, replicate 1) was -0.2 and the Tm of MMP-2 with peptide (MMP-2 [3]; peptide 30, replicate 1) was 47.5 °C. For the same substance, the “Dtm (ΔTm)” value (MMP-2 [3]; peptide 30, replicate 2) was 0.1, the Tm of MMP-2 with peptide (MMP-2 [3]; peptide 30, replicate 2) was 47.8 °C and the “Dtm (ΔTm)” value (MMP-2 [3]; peptide 30, replicate 3) was 0.1. For the same substance, the Tm of MMP-2 with peptide (MMP-2 [3]; peptide 30, replicate 3) was 47.8 °C, the “Dtm (ΔTm), average” value (MMP-2 [3]; peptide 50 (µM per method)) was -0.2 and the “Tm of MMP-2 with peptide, average” value (MMP-2 [3]; peptide 50 (µM per method)) was 47.5. For the same substance, the “Dtm (ΔTm)” value (MMP-2 [3]; peptide 50, replicate 1) was -0.2, the Tm of MMP-2 with peptide (MMP-2 [3]; peptide 50, replicate 1) was 47.5 °C and the “Dtm (ΔTm)” value (MMP-2 [3]; peptide 50, replicate 2) was -0.2. For the same substance, the Tm of MMP-2 with peptide (MMP-2 [3]; peptide 50, replicate 2) was 47.5 °C, the “Dtm (ΔTm)” value (MMP-2 [3]; peptide 50, replicate 3) was -0.2 and the Tm of MMP-2 with peptide (MMP-2 [3]; peptide 50, replicate 3) was 47.5 °C.
